# Assay results as given in patent US8524748B2, “Heteroalkyl biphenyl antagonists of prostaglandin D2 receptors” (Panmira Pharmaceuticals, LLC, priority 2008, dated 2013).
# Target: T1, human DP2 receptor (Homo sapiens, UniProt Q9Y5Y4)
# T1 construct: expressed in transfected cells; membranes prepared from them
# T1 sequence (Q9Y5Y4 1-395): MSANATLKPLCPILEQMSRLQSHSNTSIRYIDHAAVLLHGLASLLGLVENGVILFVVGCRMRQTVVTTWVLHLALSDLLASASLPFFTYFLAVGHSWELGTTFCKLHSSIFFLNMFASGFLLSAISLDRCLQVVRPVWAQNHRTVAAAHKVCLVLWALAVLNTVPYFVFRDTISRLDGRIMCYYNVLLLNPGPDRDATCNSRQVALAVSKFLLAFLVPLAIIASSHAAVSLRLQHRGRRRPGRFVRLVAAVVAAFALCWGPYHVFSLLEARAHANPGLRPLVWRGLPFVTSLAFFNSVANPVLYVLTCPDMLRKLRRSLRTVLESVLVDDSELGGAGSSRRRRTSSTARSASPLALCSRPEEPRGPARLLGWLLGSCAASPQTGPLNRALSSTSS
# Experiment: DP2/CRTH2 radioligand binding assay using [3H]PGD2
# Conditions: membranes of HEK293 cells stably expressing recombinant human DP2; 1 nM [3H]PGD2; read-out: hDP2 IC50
# Protocol: The ability of a compound to bind to the human DP2 receptor is assessed via a radioligand binding assay using [^3H]PGD2. HEK293 cells stably expressing recombinant human DP2 are resuspended in 10 mM Hepes, 7.4 containing 1 mM DTT, lysed and centrifuged at 75,000×g to pellet the membranes. The membranes are resuspended in 10 mM Hepes, 7.4 containing 1 mM DTT and 10% glycerol to approximately 5 mg protein/ml. Membranes (2-10 μg protein/well) are incubated in 96-well plates with 1 nM [^3H]PGD2 and test compound in Assay Buffer (50 mM Hepes, 10 mM MnCl2, 1 mM EDTA, plus or minus 0.2% human serum albumin, pH 7.4) for 60 minutes at room temperature. The reactions are terminated by rapid filtration through Whatman GF/C glass fibre filter plates. The filter plates were pre-soaked in 0.33% polythylenimine for 30 minutes at room temperature then washed in Wash Buffer (50 mM Hepes, 0.5 M NaCl pH 7.4) prior to harvesting. After harvesting, the filter plates are washed 3 times with 1 ml cold Wash Buffer then dried. Scintillant is then added to the plates and the radioactivity retained on the filters is determined on a Packard TopCount (Perkin Elmer). Specific binding is determined as total radioactive binding minus non-specific binding in the presence of 10 μM PGD2. IC50s were determined using GraphPad prism analysis of drug titration curves.
row,IC50 [µM],SMILES
1,< 1,"COc1ccc(CC(=O)O)cc1-c1ccc(C(F)(F)F)cc1CSc1ccccc1 [Compound 1-1, (6-Methoxy-2′-phenylsulfanylmethyl-4′-trifluoromethyl-biphenyl-3-yl)-acetic acid]"
2,< 1,"COc1ccc(CC(=O)O)cc1-c1ccc(C(F)(F)F)cc1CSCc1ccccc1 [Compound 1-2, (2′-Benzylsulfanylmethyl-6-methoxy-4′-trifluoromethyl-biphenyl-3-yl)-acetic acid]"
3,1 to 10,"COc1ccc(CC(=O)O)cc1-c1ccc(C(F)(F)F)cc1CSC(C)(C)C [Compound 1-3, (2′-tert-Butylsulfanylmethyl-6-methoxy-4′-trifluoromethyl-biphenyl-3-yl)-acetic acid]"
4,< 1,"COc1ccc(CC(=O)O)cc1-c1ccc(C(F)(F)F)cc1CSc1nnc(C)s1 [Compound 1-4, [6-Methoxy-2′-(5-methyl-[1,3,4]thiadiazol-2-ylsulfanylmethyl)-4′-trifluoromethyl-biphenyl-3-yl]-acetic acid]"
5,1 to 10,"COc1ccc(CC(=O)O)cc1-c1ccc(C(F)(F)F)cc1CSCC(F)(F)F [Compound 1-5, [6-Methoxy-2′-(2,2,2-trifluoro-ethylsulfanylmethyl)-4′-trifluoromethyl-biphenyl-3-yl]-acetic acid]"
6,1 to 10,"COc1ccc(CC(=O)O)cc1-c1ccc(C(F)(F)F)cc1COc1ccccc1 [Compound 1-6, (6-Methoxy-2′-phenoxymethyl-4′-trifluoromethyl-biphenyl-3-yl)-acetic acid]"
7,> 10,"COc1ccc(CC(=O)O)cc1-c1ccc(C(F)(F)F)cc1C[S+]([O-])c1ccccc1 (centres unmarked) [Compound 1-7, (2′-Benzenesulfinylmethyl-6-methoxy-4′-trifluoromethyl-biphenyl-3-yl)-acetic acid]"
8,> 10,"COc1ccc(CC(=O)O)cc1-c1ccc(C(F)(F)F)cc1C[S+]([O-])Cc1ccccc1 (centres unmarked) [Compound 1-8, (6-Methoxy-2′-phenylmethanesulfinylmethyl-4′-trifluoromethyl-biphenyl-3-yl)-acetic acid]"
9,> 10,"COc1ccc(CC(=O)O)cc1-c1ccc(C(F)(F)F)cc1C[S+]([O-])C(C)(C)C (centres unmarked) [Compound 1-9, [6-Methoxy-2′-(2-methyl-propane-2-sulfinylmethyl)-4′-trifluoromethyl-biphenyl-3-yl]-acetic acid]"
10,> 10,"COc1ccc(CC(=O)O)cc1-c1ccc(C(F)(F)F)cc1C[S+]([O-])c1nnc(C)s1 (centres unmarked) [Compound 1-10, [6-Methoxy-2′-(5-methyl-[1,3,4]thiadiazole-2-sulfinylmethyl)-4′-trifluoromethyl-biphenyl-3-yl]-acetic acid]"
11,1 to 10,"COc1ccc(CC(=O)O)cc1-c1ccc(C(F)(F)F)cc1CS(=O)(=O)c1ccccc1 [Compound 1-11, (2′-Benzenesulfonylmethyl-6-methoxy-4′-trifluoromethyl-biphenyl-3-yl)-acetic acid]"
12,1 to 10,"COc1ccc(CC(=O)O)cc1-c1ccc(C(F)(F)F)cc1CS(=O)(=O)Cc1ccccc1 [Compound 1-12, (6-Methoxy-2′-phenylmethanesulfonylmethyl-4′-trifluoromethyl-biphenyl-3-yl)-acetic acid]"
13,> 10,"COc1ccc(CC(=O)O)cc1-c1ccc(C(F)(F)F)cc1CS(=O)(=O)C(C)(C)C [Compound 1-13, [6-Methoxy-2′-(2-methyl-propane-2-sulfonylmethyl)-4′-trifluoromethyl-biphenyl-3-yl]-acetic acid]"
14,1 to 10,"COc1ccc(CC(=O)O)cc1-c1ccc(C(F)(F)F)cc1CS(=O)(=O)c1nnc(C)s1 [Compound 1-14, [6-Methoxy-2′-(5-methyl-[1,3,4]thiadiazole-2-sulfonylmethyl)-4′-trifluoromethyl-biphenyl-3-yl]-acetic acid]"
15,1 to 10,"CCN(Cc1ccccc1)C(=O)OCc1cc(C(F)(F)F)ccc1-c1cc(CC(=O)O)ccc1OC [Compound 1-15, {2′-[(Benzyl-ethyl-carbamoyloxy)-methyl]-6-methoxy-4′-trifluoromethyl-biphenyl-3-yl}-acetic acid]"
16,< 1,"CCN(Cc1ccccc1)C(=O)OCc1cc(C(F)(F)F)ccc1-c1cc(CC(=O)O)ccc1F [Compound 1-16, {2′-[(Benzyl-ethyl-carbamoyloxy)-methyl]-6-fluoro-4′-trifluoromethyl-biphenyl-3-yl}-acetic acid]"
17,< 1,"O=C(O)CCn1c2c(c3ccccc31)C[C@H](NS(=O)(=O)c1ccc(F)cc1)CC2 [Ramatroban, reference compound]"
